Experiments:
Scpep1 = molecular target: T1, Scpep1 (Mus musculus, UniProt Q920A5); test: Carboxypeptidase activity of purified recombinant Scpep1-His6 against ET-1; type: biochemical; settings: pH 6.5 and 7.5, 50 µM ET-1
T1 construct: Scpep1 has a cleavable signal peptide, N-linked glycans, the Ser-Asp-His catalytic triad and is proteolytically processed from a 55 kDa precursor; made in house; host or cells: HT1080 cells (stably transfected), protein purified from the culture medium
T1 sequence (Q920A5 29-452): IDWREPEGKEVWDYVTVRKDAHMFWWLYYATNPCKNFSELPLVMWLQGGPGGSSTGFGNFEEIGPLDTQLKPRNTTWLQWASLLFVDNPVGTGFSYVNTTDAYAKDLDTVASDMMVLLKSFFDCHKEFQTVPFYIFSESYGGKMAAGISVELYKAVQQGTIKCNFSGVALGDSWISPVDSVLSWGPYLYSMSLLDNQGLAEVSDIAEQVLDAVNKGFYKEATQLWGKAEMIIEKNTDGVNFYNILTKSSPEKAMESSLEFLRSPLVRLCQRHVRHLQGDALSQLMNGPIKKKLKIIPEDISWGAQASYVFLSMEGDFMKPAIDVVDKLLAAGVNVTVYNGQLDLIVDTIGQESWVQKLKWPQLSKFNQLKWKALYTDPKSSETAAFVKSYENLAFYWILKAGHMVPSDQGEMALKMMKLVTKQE
Excerpt: Figure 1 Scpep1 has carboxypeptidase activity against ET-1. A. Carboxypeptidase activity against ET-1 in homogenates of cultured AVSMC from WT, Scpep1 ^−/−, CathA^S190A and Scpep1 ^−/− /CathA^S190A mice as well as from the cells of Scpep1 ^−/− /CathA^S190A mice transiently transfected with pCMV-GFP and pCMV-Scpep1 plasmids. AVSMC after the passage 3 were transfected or not with Scpep1-RGS-His-Tag and pEGFP-C1 plasmids. Forty-eight hours after transfection confluent cells were harvested, homogenized and tested for carboxypeptidase activity using 50 µM ET-1 as a substrate. Data are expressed as means (±S.D.) of 3 independent experiments performed with different cell cultures. * p<0.05 and ** p<0.01 in two-tailed unpaired t-test. B. Carboxypeptidase activity against ET-1 in homogenates of cultured AVSMC from WT mice transfected with Scpep1 and CathA shRNA. […] The amino acid analysis of the reaction mixture determined that Scpep1 cleaves the C-terminal amino acid (Trp21) from ET-1 (not shown). […]
HT1080 cells stably expressing Scpep1-His6 [19] were cultured in DMEM with 0.05% FCS. […] Purity of Scpep1-His6 was monitored by silver staining and Western blotting.
Carboxypeptidase activity in cultured AVSMC was measured against 50 µM ET-1 as previously described using the method measuring the liberation rate of the C-terminal amino acid of the peptide. […]

[1] = test system: mice (arterial blood pressure); test: Blood pressure response to intravenous peptide injection, radiotelemetry; type: in vivo, mouse; settings: for BP response to i.v. injection: 0.2 nmol/kg i.v.
Protocol: This hypothesis was further tested by measuring changes in BP in response to ET-1 and AI, the precursor of vasoconstrictive peptide AII. The changes in the diastolic and systolic BP (ΔDBP and ΔSBP, respectively) were calculated as the differences between the measured BP values and the basal values measured for the 30 min interval preceding the injection. To reduce the impact of the stress on BP caused by animal handling/injection, animals were receiving daily saline injections for 3 days prior to the experiment.
Figure 3 Mice with combined CathA/Scpep1 deficiency show higher increase in BP in response to systemic injection of ET-1. Sixteen week-old WT, Scpep1^−/−, CathA^S190A and DD male mice kept for two weeks on high-salt diet were intravenously injected with ET-1 solution in saline at a dose of 0.2 nmol/kg (A, B) and 5 nmol/kg (C, D). Changes in the systolic (ΔSBP) or diastolic (ΔDBP) blood pressure were calculated as differences between the means (±S.E) of the BP values recorded within 10 min intervals after the injections and means (±S.E) of the baseline BP values recorded within the 30 min interval before the injections. Two-way repeated measurements ANOVA was used to test differences between the mouse groups: significant differences between the mean BP values in Bonferroni post-test (* p<0.05, ** p<0.001, *** p<0.0001) are shown in the insert. N-value for each genotype is as follows: WT n = 5, DD n = 6, CathA^S190A n = 6, Scpep1 ^−/− n = 7.
Male CathA^S190A mice and appropriate littermate controls were implanted with TA11PA-C10 radiotelemetry sensors (Data Sciences International) in the left carotid artery for direct measurement of arterial pressure and heart rate as described, [38]. The transmitter was placed subcutaneously along the left flank. For basal measurements of mean day and night BP data were recorded continuously (sampling every hour for 20 sec) within 16 consecutive days and averaged for 12 h light and dark intervals. To measure changes in BP after ET-1 and AI injections data were recorded every 3 min for 2 h and averaged for 10-min consecutive intervals. […]

carboxypeptidase activity against ET-1 compared with pH 5.5 (Scpep1): Lower activity
Substance: endothelin-1 [ET-1]
BP response to i.v. injection ([1]; DD mice versus other genotypes, high-salt diet): higher response as compared to all other groups of mice | BP response to i.v. injection ([1]; WT and Scpep1-deficient mice on high-salt diet): no BP increase | time BP remained significantly elevated after injection ([1]; 5 nmol/kg i.v., DD mice): at least 60 min

— article PMC3937211, “Serine Carboxypeptidase SCPEP1 and Cathepsin A Play Complementary Roles in Regulation of Vasoconstriction via Inactivation of Endothelin-1” (PLoS Genetics, 2014)
